How the values were obtained:
[1] = target: T1, Melatonin receptor type 1B (Homo sapiens) (UniProt P49286); test: Intrinsic activity in [35S]GTP-gamma-S, binding at human melatonin receptor MT2 relative to melatonin; format: functional
T1 sequence (whole entry): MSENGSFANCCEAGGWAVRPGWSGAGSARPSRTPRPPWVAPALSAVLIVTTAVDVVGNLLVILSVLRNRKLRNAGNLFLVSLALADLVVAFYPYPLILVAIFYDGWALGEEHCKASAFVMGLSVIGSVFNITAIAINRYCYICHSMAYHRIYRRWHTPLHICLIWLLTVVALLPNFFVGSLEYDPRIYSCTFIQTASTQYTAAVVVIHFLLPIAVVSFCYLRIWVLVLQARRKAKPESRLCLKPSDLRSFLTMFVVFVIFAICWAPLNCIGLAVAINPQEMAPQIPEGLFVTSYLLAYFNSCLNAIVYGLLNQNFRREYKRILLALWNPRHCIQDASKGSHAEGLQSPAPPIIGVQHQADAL

[2] = target: Melatonin receptor type 1A (Homo sapiens, UniProt P48039); test: Inhibition of 2-[125I]iodomelatonin binding to human melatonin receptor type 1A (MT1) expressed in […] cells; format: cell-based
Chain of Melatonin receptor type 1A (P48039 whole entry): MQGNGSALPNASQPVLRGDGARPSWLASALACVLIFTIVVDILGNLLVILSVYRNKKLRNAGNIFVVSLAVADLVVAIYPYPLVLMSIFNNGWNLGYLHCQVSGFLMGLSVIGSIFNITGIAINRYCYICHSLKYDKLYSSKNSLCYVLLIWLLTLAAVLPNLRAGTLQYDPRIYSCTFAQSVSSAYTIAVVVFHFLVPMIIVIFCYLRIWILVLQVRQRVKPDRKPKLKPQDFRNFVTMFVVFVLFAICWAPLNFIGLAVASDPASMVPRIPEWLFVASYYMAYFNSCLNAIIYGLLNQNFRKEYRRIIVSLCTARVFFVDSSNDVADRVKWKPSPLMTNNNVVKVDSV

[3] = target: T2, Melatonin receptor type 1B (Homo sapiens, UniProt P49286); test: Inhibition of 2-[125I]iodomelatonin binding to human melatonin receptor MT2 expressed in […] cells; format: cell-based
T2 sequence (P49286 whole entry): T1 sequence (whole entry)

## CCC(=O)NCc1cc2c(OC)cccc2n1Cc1c(C)cccc1C
[1]
  IA: 0.16
[2]
  Ki: > 10000 nM
[3]
  Ki: 6030 nM

## CCC(=O)NCc1cc2c(OC)cccc2n1S(=O)(=O)c1ccccc1
[1]
  IA: 0.08
[2]
  Ki: > 10000 nM
[3]
  Ki: 288 nM

## CCC(=O)NCc1cc2c(OC)cccc2n1Cc1ccc(Cl)cc1
[1]
  IA: 0.01

## CCC(=O)NCc1cc2c(OC)cccc2n1C(=O)c1ccc(Cl)cc1
[1]
  IA: -0.08
[2]
  Ki: > 10000 nM
[3]
  Ki: 1820 nM

## CCC(=O)NC1Cc2ccccc2C(c2ccccc2)C1 (centres undefined)
[2]
  Ki: 105 nM
[3]
  Ki: 0.0158 nM

## COc1cc2c(cc1OC)C(CC(c1ccccc1)c1ccccc1)N(C(C)=O)CC2 (centres undefined)
[2]
  Ki: > 1000 nM
[3]
  Ki: 9.77 nM

From ChEMBL document CHEMBL1139541 (J Med Chem, 2005)
